pIC50: −log10 of the molar value. Values after ≈ are worked out from the molar mass of the structure shown.
Tests used:
[1] = tested on: K. pneumoniae H521 (KPC, SHV, TEM); test: Antibacterial activity, MIC by agar dilution (CLSI); type: cell-based; conditions: Klebsiella pneumoniae, Table 2; K. pneumoniae H521 (KPC, SHV, TEM); read-out: MIC
Method: (§1) The biological activity of representative compounds according to the invention against various bacterial strains was investigated. In a typical study, overnight grown bacterial cultures were diluted appropriately and inoculated on the agar media containing doubling dilutions of the test compounds. Observations for growth or no growth was performed after 16-20 hours of incubation at 35±2° C. in the ambient air. The overall procedure was performed as per Clinical and Laboratory Standards Institute (CLSI) recommendations, (Clinical and Laboratory Standards Institute (CLSI), Performance Standards for Antimicrobial Susceptibility Testing, 20th Informational Supplement, M07-A9, Volume 32, No. 2, 2012). Molten Mueller Hinton Agar (BD, USA) containing serial dilutions of each antibacterial agent were poured on to the plates and allowed to solidify. Appropriate suspensions from the freshly grown cultures were prepared in normal saline so that about 10^4 CFU/spot of the organism was delivered on to the drug containing agar plates using automated multipoint inoculator (Mast, UK). The plates were incubated in Biochemical oxygen demand (BOD) incubator at 37° C. for 18 hours and then examined for growth.
(§2) The strains selected for study included E. coli NCTC 13353 producing CTX-M15 and OXA-1 beta-lactamase enzymes; K. pneumoniae H521 producing KPC, SHV, TEM beta-lactamase enzymes; and K. pneumoniae S48 producing NDM, SHV, TEM beta-lactamase enzymes. The activities are expressed as Minimum Inhibitory Concentrations (MICs) (mcg/ml).

[2] = tested on: T1, Class C beta-lactamase, E. coli M50 (CMY/DHA); type: biochemical; conditions: read-out: Beta-lactamase enzyme inhibition IC50
T1 construct: no borders, tags or purification printed
Method: (§3) Determination of enzyme inhibition activity: Concentration of the inhibitor required to inhibit 50% of enzymatic activity was measured by adding a chromogenic substrate, Nitrocefin (100 uM, 5 min) to the preincubated mixture of crude enzyme and the agents (37° C., 10 min). Absorbance was measured at 485 nm by UV-spectrophotometer. The IC50 was calculated by plotting absorbance against concentration through Sigmoidal dose response curve using Graph Pad software.
(§4) The enzyme inhibition was expressed as IC50.

[3] = tested on: K. pneomoniae S48 (NDM, SHV, TEM); test: Antibacterial activity, MIC by agar dilution (CLSI); type: cell-based, K. pneumoniae; conditions: Klebsiella pneumoniae; Table 2; K. pneomoniae S48 (NDM, SHV, TEM); read-out: MIC
Method: as §1, §2

[4] = tested on: E. coli NCTC 13353 (CTX-M15, OXA-1); test: as above; type: cell-based; conditions: Escherichia coli, NCTC13353, Table 2; E. Coli NCTC 13353 (CTX-M15, OXA-1); read-out: MIC
Method: as §1
as §2, with “Table 2 details the antibacterial activity of representative compounds according to invention, against various Multi Drug Resistant (MDR) Gram-negative bacterial strains. The strains” for “The strains”

[5] = target: T2, Class D beta-lactamase, A. baumannii NCTC 13301 (OXA 23) (Acinetobacter baumannii, UniProt Q9L4P2); test: Beta-lactamase enzyme inhibition (nitrocefin, crude enzyme); type: biochemical; conditions: Class D A. baumannii NCTC 13301 (OXA 23); read-out: Beta-lactamase enzyme inhibition IC50
T2 construct: preincubated mixture of crude enzyme and the agents; endogenous in cells; host or cells: A. baumannii NCTC 13301
Method: as §3, §4

[6] = target: T3, Class A beta-lactamase, K. pneumoniae ATCC 700603 (SHV 18) (Klebsiella pneumoniae, UniProt P0AD64, E235K/G234A/R39S); test: biochemical
T3 construct: preincubated mixture of crude enzyme and the agents; endogenous in cells; host or cells: K. pneumoniae ATCC 700603
Method: as §3, §4

T3 sequence (P0AD64 22-286 R39S/G234A/E235K): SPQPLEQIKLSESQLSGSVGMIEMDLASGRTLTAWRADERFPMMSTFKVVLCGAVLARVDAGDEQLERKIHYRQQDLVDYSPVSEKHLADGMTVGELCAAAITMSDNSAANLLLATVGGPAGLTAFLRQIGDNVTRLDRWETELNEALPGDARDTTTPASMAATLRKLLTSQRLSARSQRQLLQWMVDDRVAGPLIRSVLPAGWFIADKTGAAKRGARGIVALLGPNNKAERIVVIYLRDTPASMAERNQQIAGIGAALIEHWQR
T2 sequence (Q9L4P2 18-273): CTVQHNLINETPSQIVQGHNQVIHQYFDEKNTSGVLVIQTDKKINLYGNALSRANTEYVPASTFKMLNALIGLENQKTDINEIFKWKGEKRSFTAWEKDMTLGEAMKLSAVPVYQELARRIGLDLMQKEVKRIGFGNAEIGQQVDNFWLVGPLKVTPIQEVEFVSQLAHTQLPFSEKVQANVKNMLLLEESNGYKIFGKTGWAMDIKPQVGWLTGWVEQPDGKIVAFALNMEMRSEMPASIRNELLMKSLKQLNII

Compound | MIC [1] | pIC50 [2] | MIC [3] | MIC [4] | pIC50 [5] | pIC50 [6]
C[C@H](N)COc1ccccc1CC(=O)NNC(=O)[C@@H]1CC[C@@H]2CN1C(=O)N2OS(=O)(=O)O [Example 40, (2S,5R)-sulfuric acid mono-[2-(N′-{2-[2-((S)-2-amino-propoxy)-phenyl]-acetyl}-hydrazinocarbonyl)-7-oxo-1,6-diaza-bicyclo[3.2.1]oct-6-yl]ester] | 2 µg/mL (≈ 4.24 µM) | 7.00 | 2 µg/mL (≈ 4.24 µM) | 2 µg/mL (≈ 4.24 µM) | 5.80 | 6.96
C[C@H](N)COc1cccc(CC(=O)NNC(=O)[C@@H]2CC[C@@H]3CN2C(=O)N3OS(=O)(=O)O)c1 [Example 41, (2S,5R)-sulfuric acid mono-[2-(N′-{2-[3-((S)-2-amino-propoxy)-phenyl]-acetyl}-hydrazinocarbonyl)-7-oxo-1,6-diaza-bicyclo[3.2.1]oct-6-yl]ester] | 1 µg/mL (≈ 2.12 µM) | 7.28 | 0.5 µg/mL (≈ 1.06 µM) | 0.5 µg/mL (≈ 1.06 µM) | 6.00 | 7.42
C[C@@H](N)COc1cccc(CC(=O)NNC(=O)[C@@H]2CC[C@@H]3CN2C(=O)N3OS(=O)(=O)O)c1 [Example 42, (2S,5R)-sulfuric acid mono-[2-(N′-{2-[3-((R)-2-amino-propoxy)-phenyl]-acetyl}-hydrazinocarbonyl)-7-oxo-1,6-diaza-bicyclo[3.2.1]oct-6-yl]ester] | 1 µg/mL (≈ 2.12 µM) | 7.49 | 0.5 µg/mL (≈ 1.06 µM) | 1 µg/mL (≈ 2.12 µM) | 5.91 | 7.44
C[C@H](N)COc1ccc(CC(=O)NNC(=O)[C@@H]2CC[C@@H]3CN2C(=O)N3OS(=O)(=O)O)cc1 [Example 43, (2S,5R)-sulfuric acid mono-[2-(N′-{2-[4-((S)-2-amino-propoxy)-phenyl]-acetyl}-hydrazinocarbonyl)-7-oxo-1,6-diaza-bicyclo[3.2.1]oct-6-yl]ester] | 2 µg/mL (≈ 4.24 µM) | 7.43 | 0.5 µg/mL (≈ 1.06 µM) | 0.5 µg/mL (≈ 1.06 µM) | 6.28 | 6.41
C[C@H](N)COc1ccc(CC(=O)NNC(=O)[C@@H]2CC[C@@H]3CN2C(=O)N3OS(=O)(=O)O)c(F)c1 [Example 44, (2S,5R)-sulfuric acid mono-[2-(N′-{2-[2-fluoro-4-((S)-2-amino-propoxy)-phenyl]-acetyl}-hydrazinocarbonyl)-7-oxo-1,6-diaza-bicyclo[3.2.1]oct-6-yl]ester] | 2 µg/mL (≈ 4.09 µM) | 7.51 | 1 µg/mL (≈ 2.04 µM) | 1 µg/mL (≈ 2.04 µM) | 6.25 | 7.24
CC(C)[C@@H](N)COc1ccc(CC(=O)NNC(=O)[C@@H]2CC[C@@H]3CN2C(=O)N3OS(=O)(=O)O)c(F)c1 [Example 46, (2S,5R)-sulfuric acid mono-[2-(N′-{2-[2-fluoro-4-((R)-2-amino-3-methyl-butoxy)-phenyl]-acetyl}-hydrazinocarbonyl)-7-oxo-1,6-diaza-bicyclo[3.2.1]oct-6-yl]ester] | 4 µg/mL (≈ 7.73 µM) | 6.58 | 4 µg/mL (≈ 7.73 µM) | 2 µg/mL (≈ 3.86 µM) | 5.39 | 7.10
O=C(Cc1ccc(O[C@H]2CCNC2)cc1F)NNC(=O)[C@@H]1CC[C@@H]2CN1C(=O)N2OS(=O)(=O)O [Example 47, (2S,5R)-sulfuric acid mono-[2-(N′-{2-[2-fluoro-4-((S)-pyrrolidin-3-oxy)-phenyl]-acetyl}-hydrazinocarbonyl)-7-oxo-1,6-diaza-bicyclo[3.2.1]oct-6-yl]ester] | 2 µg/mL (≈ 3.99 µM) | 7.11 | 0.5 µg/mL (≈ 0.997 µM) | 1 µg/mL (≈ 1.99 µM) | 6.07 | 7.82
C[C@@H](N)COc1ccc(CC(=O)NNC(=O)[C@@H]2CC[C@@H]3CN2C(=O)N3OS(=O)(=O)O)cc1 [Example 49, (2S,5R)-sulfuric acid mono-[2-(N′-{2-[4-((R)-2-amino-propoxy)-phenyl]-acetyl}-hydrazinocarbonyl)-7-oxo-1,6-diaza-bicyclo[3.2.1]oct-6-yl]ester] | 1 µg/mL (≈ 2.12 µM) | 7.33 | 0.5 µg/mL (≈ 1.06 µM) | 0.5 µg/mL (≈ 1.06 µM) | 6.27 | 6.95
CC(C)[C@H](N)COc1ccccc1CC(=O)NNC(=O)[C@@H]1CC[C@@H]2CN1C(=O)N2OS(=O)(=O)O [Example 50, (2S,5R)-sulfuric acid mono-[2-(N′-{2-[2-((S)-2-amino-3-methyl-butoxy)-phenyl]-acetyl}-hydrazinocarbonyl)-7-oxo-1,6-diaza-bicyclo[3.2.1]oct-6-yl]ester] | > 32 µg/mL | 7.11 | 16 µg/mL (≈ 32 µM) | 16 µg/mL (≈ 32 µM) | 5.93 | 7.10
CC(C)[C@H](N)COc1ccc(CC(=O)NNC(=O)[C@@H]2CC[C@@H]3CN2C(=O)N3OS(=O)(=O)O)cc1 [Example 54, (2S,5R)-sulfuric acid mono-[2-(N′-{2-[4-((S)-2-amino-3-methyl-butoxy)-phenyl]-acetyl}-hydrazinocarbonyl)-7-oxo-1,6-diaza-bicyclo[3.2.1]oct-6-yl]ester] | 8 µg/mL (≈ 16 µM) | 7.40 | 1 µg/mL (≈ 2 µM) | 1 µg/mL (≈ 2 µM) | 6.20 | 7.43
O=C(Cc1ccccc1OC[C@@H]1CCCN1)NNC(=O)[C@@H]1CC[C@@H]2CN1C(=O)N2OS(=O)(=O)O [Example 56, (2S,5R)-sulfuric acid mono-[2-(N′-{2-[2-((S)-pyrrolidin-2-ylmethoxy)-phenyl]-acetyl}-hydrazinocarbonyl)-7-oxo-1,6-diaza-bicyclo[3.2.1]oct-6-yl]ester] | 16 µg/mL (≈ 32.2 µM) | 7.30 | 16 µg/mL (≈ 32.2 µM) | 8 µg/mL (≈ 16.1 µM) | 5.75 | 6.85
O=C(Cc1ccccc1OC[C@H]1CCCN1)NNC(=O)[C@@H]1CC[C@@H]2CN1C(=O)N2OS(=O)(=O)O [Example 57, (2S,5R)-sulfuric acid mono-[2-(N′-{2-[2-((R)-pyrrolidin-2-ylmethoxy)-phenyl]-acetyl}-hydrazinocarbonyl)-7-oxo-1,6-diaza-bicyclo[3.2.1]oct-6-yl]ester] | 4 µg/mL (≈ 8.04 µM) | 6.98 | 2 µg/mL (≈ 4.02 µM) | 2 µg/mL (≈ 4.02 µM) | 5.48 | 6.90
O=C(Cc1cccc(OC[C@@H]2CCCN2)c1)NNC(=O)[C@@H]1CC[C@@H]2CN1C(=O)N2OS(=O)(=O)O [Example 58, (2S,5R)-sulfuric acid mono-[2-(N′-{2-[3-((S)-pyrrolidin-2-ylmethoxy)-phenyl]-acetyl}-hydrazinocarbonyl)-7-oxo-1,6-diaza-bicyclo[3.2.1]oct-6-yl]ester] | 2 µg/mL (≈ 4.02 µM) | 7.43 | 0.5 µg/mL (≈ 1 µM) | 1 µg/mL (≈ 2.01 µM) | 5.83 | 7.28
O=C(Cc1cccc(OC[C@@H]2CCNC2)c1)NNC(=O)[C@@H]1CC[C@@H]2CN1C(=O)N2OS(=O)(=O)O [Example 60, (2S,5R)-sulfuric acid mono-[2-(N′-{2-[3-((R)-pyrrolidin-3-ylmethoxy)-phenyl]-acetyl}-hydrazinocarbonyl)-7-oxo-1,6-diaza-bicyclo[3.2.1]oct-6-yl]ester] | 2 µg/mL (≈ 4.02 µM) | 7.39 | 1 µg/mL (≈ 2.01 µM) | 1 µg/mL (≈ 2.01 µM) | 5.89 | 7.35

Reference: US9822115B2, “Nitrogen containing compounds and their use as antibacterial agents” (WOCKHARDT LIMITED, priority 2014, dated 2017)
